The results in this text go back to ChEMBL document CHEMBL1155510, “Scaffold rearrangement of dihydroxypyrimidine inhibitors of HIV integrase: Docking model revisited” (Bioorg Med Chem Lett, 2010).

Test [1] in a line: Inhibition of HIV integrase strand transfer activity. More on the design: species or system Human immunodeficiency virus.
Test [2] is described as follows: Inhibition of HIV integrase 3'-end processing reaction. More on the design: species or system Human immunodeficiency virus.

For the molecule `CN(C)CCCNC(=O)c1nc(Cc2ccc(F)cc2)[nH]c(=O)c1O`, the IC50 in test [1] and in test [2] was more than 333 µM in each case.

Turning to `CNC(=O)c1nc(Cc2ccc(F)cc2)n(C)c(=O)c1O`, the figures for the IC50 in test [1] and in test [2] were 241 µM and more than 333 µM, respectively.

Turning to `CNC(=O)c1nc(Cc2ccc(F)cc2)[nH]c(=O)c1O`, the IC50 in test [1] was 169 µM; in test [2], more than 333 µM.

For `O=C(O)c1nc(Cc2ccc(F)cc2)[nH]c(=O)c1O`, the IC50 in test [1] is 243 µM; in test [2] it was more than 333 µM.

Take `CNC(=O)c1nc(C)n(Cc2ccc(F)cc2)c(=O)c1O`: the IC50 was 111 µM in test [1] and more than 333 µM in test [2].

Take `COCCNC(=O)c1nc(Cc2ccc(F)cc2)[nH]c(=O)c1O`: the results for the IC50 in test [1] and in test [2] were 206 µM and more than 333 µM, respectively.

By IC50 is commonly meant the concentration that inhibits the measured activity by half.
